Here are results for 17 compounds from ChEMBL document CHEMBL4339238, “Potent Anti-HIV Ingenane Diterpenoids from Euphorbia ebracteolata” (J Nat Prod, 2019).

As usually defined, the IC50 is the point on the concentration scale where inhibition reaches its midpoint. Higher therefore signals a need for much substance. As a reminder, the CC50 is the concentration that lowers cell viability or growth by half. Read a low CC50 as greater toxicity to the cells.

Data set [1] has as its system Human immunodeficiency virus 1. Put plainly: Antiviral activity against HIV NL4-3 infected in human MT4 cells measured on day 3 post-infection by Nano-Glo luciferase assay. Type of data set: functional, organism-based. Conditions: Human immunodeficiency virus 1, NL4-3, MT4, 72 h.
The nature of data set [2]: Cytotoxicity against human MT4 cells measured after 3 days by CytoTox-Glo assay. The data set is classed as cell-based.
Data set [3] is described as follows: Selectivity index, ratio of CC50 for human MT4 cells to IC50 for HIV NL4-3 infected in human MT4 cells. The data set is classed as toxicity, cell-based. Conditions: read-out: Ratio CC50/IC50.

For the compound `CCCCCCCCCCCCCCCC(=O)O[C@H]1C(C)=C[C@]23C(=O)[C@@H](C=C(CO)[C@@H](O)[C@]12O)[C@H]1[C@@H](C[C@H]3C)C1(C)C`, in data set [1], inhibition was half-maximal at 4.1 nM (IC50). In addition, in data set [2], half-maximal cytotoxicity (CC50 at 72 h) was put at 26300 nM. In addition, in data set [3], the selectivity ratio came out at 6420.

For the compound `CCCCC/C=C/C=C/C(=O)O[C@@H]1C(COC(C)=O)=C[C@@H]2C(=O)[C@]3(C=C(C)[C@H](O)[C@@]13O)[C@H](C)C[C@@H]1[C@H]2C1(C)C`, the IC50 in data set [1] worked out at 1.2 nM. The midpoint of cytotoxicity in data set [2], the CC50 at 72 h, lay at 15200 nM. Moreover, in data set [3], the selectivity ratio turned out to be 13000.

Turning to `CCCCC/C=C\C=C\C(=O)O[C@@H]1C(COC(C)=O)=C[C@@H]2C(=O)[C@]3(C=C(C)[C@H](O)[C@@]13O)[C@H](C)C[C@@H]1[C@H]2C1(C)C`, half-maximal inhibition in data set [1] (IC50) was put at 0.7 nM. Also, it took 14300 nM to reach half-maximal cytotoxicity in data set [2] (CC50 at 72 h). In addition, the selectivity ratio in data set [3] worked out at 20300.

`CCCCC/C=C\C=C\C(=O)O[C@H]1C(C)=C[C@]23C(=O)[C@@H](C=C(COC(C)=O)[C@@H](O)[C@]12O)[C@H]1[C@@H](C[C@H]3C)C1(C)C` yielded an IC50 in data set [1] of 1.8 nM. Besides, the CC50 at 72 h in data set [2] was over 900 nM. Further, the selectivity ratio in data set [3] is over 526.

`CCCCCCCCCCCCCC(=O)O[C@H]1C(C)=C[C@]23C(=O)[C@@H](C=C(CO)[C@@H](O)[C@]12O)[C@H]1[C@@H](C[C@H]3C)C1(C)C` returned an IC50 in data set [1] of 2.3 nM. In data set [2], this compound yielded a CC50 at 72 h of 26300 nM. Besides, the selectivity ratio in data set [3] turned out to be 11300.

In turn, `CCCC\C=C/C=C/C=C/C(=O)O[C@H]1C(C)=C[C@]23C(=O)[C@@H](C=C(COC(C)=O)[C@@H](O)[C@]12O)[C@H]1[C@@H](C[C@H]3C)C1(C)C` showed an IC50 in data set [1] of 8.4 nM. Besides, the CC50 at 72 h in data set [2] is over 900 nM. Also, the selectivity ratio in data set [3] is over 111.

`CCCCCCCCCCCCCCCC(=O)O[C@@H]1C(CO)=C[C@@H]2C(=O)[C@]3(C=C(C)[C@H](O)[C@@]13O)[C@H](C)C[C@@H]1[C@H]2C1(C)C` gave an IC50 in data set [1] of 4.4 nM. The CC50 at 72 h in data set [2] is over 1700 nM. In data set [3], the selectivity ratio is over 385.

`CCCCC/C=C/C=C/C(=O)O[C@H]1C(C)=C[C@]23C(=O)[C@@H](C=C(COC(C)=O)[C@@H](O)[C@]12O)[C@H]1[C@@H](C[C@H]3C)C1(C)C`: the IC50 in data set [1] turned out to be 5 nM. Also, the CC50 at 72 h in data set [2] was over 900 nM. The selectivity ratio in data set [3] was over 185.

With `CCCCCCCCCCCCCC(=O)OCC1=C[C@@H]2C(=O)[C@]3(C=C(C)[C@H](O)[C@@]3(O)[C@@H]1O)[C@H](C)C[C@@H]1[C@H]2C1(C)C`, the IC50 in data set [1] was determined as 8.6 nM. In data set [2], this compound came in with a CC50 at 72 h of 32400 nM. Also, the selectivity ratio in data set [3] was 3770.

As for `CCCCCCCCCCCCCCCC(=O)OCC1=C[C@@H]2C(=O)[C@]3(C=C(C)[C@H](O)[C@@]3(O)[C@@H]1O)[C@H](C)C[C@@H]1[C@H]2C1(C)C`, 1.1 nM corresponded to half-maximal inhibition in data set [1] (IC50). The CC50 at 72 h in data set [2] was over 1700 nM. The selectivity ratio in data set [3] is over 1540.

In turn, `CCCCCC/C=C/CCCCCCCC(=O)O[C@H]1C(C)=C[C@]23C(=O)[C@@H](C=C(CO)[C@@H](O)[C@@]12O)[C@H]1[C@@H](C[C@H]3C)C1(C)C` came in with an IC50 in data set [1] of 1.1 nM. In data set [2], this compound gave a CC50 at 72 h of 13900 nM. The selectivity ratio in data set [3] came out at 13100.

Consider `CCCC\C=C/C=C\C=C\C(=O)O[C@H]1C(C)=C[C@]23C(=O)[C@@H](C=C(COC(C)=O)[C@@H](O)[C@]12O)[C@H]1[C@@H](C[C@H]3C)C1(C)C`, for which, in data set [1], the IC50 worked out at 9.7 nM. This compound also had a CC50 at 72 h in data set [2] of over 900 nM. In addition, the selectivity ratio in data set [3] was over 96.2.

Consider `CCCCCC/C=C\CCCCCCCC(=O)O[C@H]1C(C)=C[C@]23C(=O)[C@@H](C=C(CO)[C@@H](O)[C@@]12O)[C@H]1[C@@H](C[C@H]3C)C1(C)C`, for which, in data set [1], the IC50 came to 2.7 nM. The same compound came in with a CC50 at 72 h in data set [2] of over 1700 nM. Further, in data set [3], the selectivity ratio was over 625.

As for `CCCCCCCCCCCCCC(=O)O[C@@H]1C(CO)=C[C@@H]2C(=O)[C@]3(C=C(C)[C@H](O)[C@@]13O)[C@H](C)C[C@@H]1[C@H]2C1(C)C`, the midpoint of inhibition in data set [1], the IC50, lay at 3.9 nM. In data set [2], this compound had a CC50 at 72 h of over 1800 nM. Further, in data set [3], the selectivity ratio is over 454.

On to `CCCCCCCCCC(=O)OCC1=C[C@@H]2C(=O)[C@]3(C=C(C)[C@H](O)[C@@]3(O)[C@@H]1O)[C@H](C)C[C@@H]1[C@H]2C1(C)C`, for which, in data set [1], the IC50 amounted to 8.2 nM. This compound returned a CC50 at 72 h in data set [2] of 48800 nM. Also, the selectivity ratio in data set [3] worked out at 5980.

Take `CC1=C[C@]23C(=O)[C@@H](C=C(CO)[C@@H](O)[C@]2(O)[C@H]1O)[C@H]1[C@@H](C[C@H]3C)C1(C)C` [INGENOL]: in data set [1], the IC50 is over 10 nM. Moreover, the CC50 at 72 h in data set [2] was over 10000 nM.

On to `Cc1cn([C@H]2C[C@H](N=[N+]=[N-])[C@@H](CO)O2)c(=O)[nH]c1=O` [ZIDOVUDINE], for which the midpoint of inhibition in data set [1], the IC50, lay at 18.7 nM. In data set [2], this compound returned a CC50 at 72 h of over 370 nM. Also, in data set [3], the selectivity ratio was over 20.
